Reference: patent US20250378918A1, “Phenotype-Based Chemical Screens” (Nemametrix, priority 2015, published 2025)

Legend:
zebrafish larvae = assay: phenoBlast query of behavioral profile database with haloperidol profile; type: in vivo; conditions: screened at 10 μM; cutoff = DMSO control well most similar to haloperidol query; FIGS. 2A-2C
Method: To identify compounds with haloperidol-like behavioral profiles, the behaviors of zebrafish larvae in 29,760 compound-treated wells (including 4,300 known bioactive compounds, 20,000 uncharacterized novel compounds and more than 5,000 DMSO controls) were systematically quantified. Behavioral profiles from each well were compiled into a database. Then, the average profile of three haloperidol (5 μM)-treated wells was used to query the compiled database for additional compounds that cause haloperidol-like phenotypes. […] Four of the known hit compounds were antipsychotic drugs (including three butyrophenones and one tricyclic). A fifth compound, DO 897/99 has been under investigation for treatment of schizophrenia and a sixth compound, lidoflazine, is structurally related to the known antipsychotic amperozide and other antipsychotics in the diphenylbutylpiperidine class (e.g., clopimozide, fluspirilene and pimozide) (FIG. 2C).
The Actiprobe library (TimTec Corporation) contains 10,000 compounds dissolved in DMSO at a stock concentration of 1 mg/ml (˜3 mM). The Chembridge library (Chembridge Corporation) contains 10,000 compounds dissolved in DMSO at a stock concentration of 1 mM. The Spectrum Collection (MicroSource Discovery) contains 2,320 compounds dissolved in DMSO at a concentration of 10 mM. The Prestwick library (Prestwick Chemical) contains 1,280 approved drugs dissolved in DMSO at a stock concentration of 10 mM. […]
Digital video were captured at 25 frames per second using an AVT Pike digital camera. […] To analyze digital video recordings, a motion index was calculated by frame differencing. […]
For each well, the raw motion index from each assay was concatenated into a 10,500-point motion index time series. […] The haloperidol query was calculated by averaging the time series from three replicate haloperidol-treated wells. To calculate the phenoBLAST distance metric, L1 distances were calculated by: phenoBLAST Distance=sum (abs(query-well)), where ‘query’ and ‘well’ indicate their associated time series.

larval zebrafish = assay: battery of ten zebrafish behavioral assays (motion index); type: in vivo; conditions: for haloperidol-like behavioral phenotype: antipsychotic drugs, FIG. 1B
Method: Haloperidol, a butyrophenone, is known to bind at least 20 molecular targets found in the human brain. To determine how haloperidol affects zebrafish behavior, a battery of ten behavioral assays was developed to compare behavioral profiles from control (DMSO) and haloperidol-treated animals.
A large number of fertilized eggs (up to 20,000 embryos per day) were collected from group matings of Ekkwill zebrafish. Embryos were raised in hatching jars at 28° C. on a 14/10 hour light/dark cycle until 3 days post fertilization (d.p.f.), then transferred to an incubator under the same conditions until 7 d.p.f. Groups of approximately ten larvae (7 d.p.f.) were distributed into the wells of clear flat bottom square well 96-well plates filled with E3 medium (300 μl). Larvae were then incubated at 25° C. on the bench top for one hour prior to chemical treatment and subsequent experiments. All zebrafish protocols were approved by the Institutional Animal Care and Use Committee at Massachusetts General Hospital or at Teleos Therapeutics, LLC.
The Actiprobe library (TimTec Corporation) contains 10,000 compounds dissolved in DMSO at a stock concentration of 1 mg/ml (˜3 mM). The Chembridge library (Chembridge Corporation) contains 10,000 compounds dissolved in DMSO at a stock concentration of 1 mM. The Spectrum Collection (MicroSource Discovery) contains 2,320 compounds dissolved in DMSO at a concentration of 10 mM. The Prestwick library (Prestwick Chemical) contains 1,280 approved drugs dissolved in DMSO at a stock concentration of 10 mM. The Neurotransmitter library (Biomol International; cat. No. 2810) contains 700 compounds dissolved in DMSO at a stock concentration of 10 mM. All compounds were diluted in E3 buffer and screened at 10 μM final concentration and <1% DMSO. Negative controls were treated with an equal volume of DMSO. Stock solutions were added directly to zebrafish in the wells of a 96-well plate, mixed and allowed to incubate for 1 h at room temperature before behavioral evaluation in the Behavioral Battery of assays. Reordered hit compounds were dissolved in DMSO to a stock concentration of 30 mM and added to wells as described above. Hits were retested at a concentration range of 50, 10, 5, 1, 0.5, 0.1, and 0.05 μM in triplicate; assays for retesting were run at 10-minute and 1-hour incubation time points.
Digital video were captured at 25 frames per second using an AVT Pike digital camera. High intensity LEDs were used to deliver violet (405 nm), blue (450 nm), and red (660 nm) light stimuli. Acoustic stimuli were delivered using push-style solenoids to tap the stage. Stimuli and digital recordings were applied to the entire 96-well plate simultaneously. Instrument control and data acquisition were performed using custom MATLAB scripts. Each assay, including video recording and data processing, took ˜40 s per plate per 30 s assay, enabling us to routinely screen 96 wells against a battery of ten assays in less than ten minutes. To analyze digital video recordings, a motion index was calculated by frame differencing. […] The behavioral battery was comprised of ten assays (Assay 1-10) performed in numerical order. phenoBlast ranking and statistics

| Structure (SMILES) | phenoBlast similarity to haloperidol (5 μM) query profile, hit ranking (zebrafish larvae) | haloperidol-like behavioral phenotype (larval zebrafish) | other results |
| --- | --- | --- | --- |
| Cc1cccc(C)c1NC(=O)CN1CCN(CCCC(c2ccc(F)cc2)c2ccc(F)cc2)CC1 [lidoflazine] | hit compounds | – | – |
| O=C(CCCN1CC=C(n2c(=O)[nH]c3ccccc32)CC1)c1ccc(F)cc1 [droperidol] | – | cause haloperidol-like behaviors | – |
| O=C(CCCN1CCC(O)(c2ccc(Br)cc2)CC1)c1ccc(F)cc1 [bromperidol] | top ranked hit compound | cause haloperidol-like behaviors | – |
| CN1CCN(CCCN2c3ccccc3Sc3ccc(Cl)cc32)CC1 [prochlorperazine] | – | cause haloperidol-like behaviors | – |
| O=C(CCCN1CCC(O)(c2ccc(Cl)cc2)CC1)c1ccc(F)cc1 [haloperidol] | – | – | effect on locomotion of larval zebrafish (larval zebrafish; high concentrations (50 μM)): locomotor impairment; motion index in behavioral battery (larval zebrafish; lower concentrations (5 μM), FIG. 1A): complex pattern of increased activity |
| c1ccc2c(c1)Nc1ccccc1S2 [phenothiazine] | – | cause haloperidol-like behaviors | – |
| COc1ccccc1N1CCN(CCCCNC(=O)c2ccc3ccccc3c2)CC1.Cl.Cl [DO 897/99] | hit compounds | – | – |
| CSc1ccc2c(c1)N(CCC1CCCCN1C)c1ccccc1S2 (stereo not shown) [thioridazine] | – | cause haloperidol-like behaviors | – |
